Several values for one entry are separate records, joined by “and”; a condition that tells them apart may be missing. Equal values may be shown once.
How the values were obtained:
[1] = target: Kappa-type opioid receptor (Cavia porcellus, UniProt P41144)
[2] = target: Delta-type opioid receptor (Mus musculus, UniProt P32300)
Mu-type opioid receptor = Mu-type opioid receptor (Cavia porcellus, UniProt P97266)
Chain of Mu-type opioid receptor (P97266 whole entry): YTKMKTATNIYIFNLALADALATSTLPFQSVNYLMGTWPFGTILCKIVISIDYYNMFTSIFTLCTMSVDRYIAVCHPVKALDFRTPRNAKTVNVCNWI

Chain of Delta-type opioid receptor (P32300 whole entry): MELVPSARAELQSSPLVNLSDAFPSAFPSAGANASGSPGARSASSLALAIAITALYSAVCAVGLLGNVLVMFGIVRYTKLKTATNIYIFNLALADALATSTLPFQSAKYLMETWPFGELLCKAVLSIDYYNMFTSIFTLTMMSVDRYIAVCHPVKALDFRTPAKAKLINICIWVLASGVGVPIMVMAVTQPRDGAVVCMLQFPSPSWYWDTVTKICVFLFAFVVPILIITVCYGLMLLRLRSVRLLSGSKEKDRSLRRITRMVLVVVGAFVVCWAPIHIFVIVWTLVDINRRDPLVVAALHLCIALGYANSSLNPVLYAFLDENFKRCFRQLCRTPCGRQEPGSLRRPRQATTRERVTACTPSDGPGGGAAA
Chain of Kappa-type opioid receptor (P41144 whole entry): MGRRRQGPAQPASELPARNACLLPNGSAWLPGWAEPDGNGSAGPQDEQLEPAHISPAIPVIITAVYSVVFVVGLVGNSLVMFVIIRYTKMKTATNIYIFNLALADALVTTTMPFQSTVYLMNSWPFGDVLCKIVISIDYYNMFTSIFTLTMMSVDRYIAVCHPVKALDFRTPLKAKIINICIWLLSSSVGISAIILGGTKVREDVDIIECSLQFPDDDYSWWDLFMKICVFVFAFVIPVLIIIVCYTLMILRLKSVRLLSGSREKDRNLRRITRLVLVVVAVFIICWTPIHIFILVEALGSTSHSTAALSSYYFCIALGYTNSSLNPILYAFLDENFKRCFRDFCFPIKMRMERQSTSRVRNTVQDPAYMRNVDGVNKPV

| Structure (SMILES) | Ki [1] | Ki [2] | Ki (Mu-type opioid receptor) |
| --- | --- | --- | --- |
| Cc1cc(O)cc(C)c1C[C@H](N)C(=O)N[C@H](CCCN=C(N)N)C(=O)N[C@@H](Cc1ccccc1)C(=O)N[C@@H](CCCN)C(N)=O [Dmt-d-Arg-Phe-Orn-NH2] | 26.3 nM | 1240 nM | 0.151 nM |
| Cc1cc(O)cc(C)c1C[C@H](N)C(=O)N[C@H](CCCN=C(N)N)C(=O)N[C@@H](Cc1ccccc1)C(=O)N[C@@H](CCN)C(N)=O [H-Dmt-D-Arg-Phe-A2bu-NH2] | 47.5 nM | 6130 nM | 0.803 nM |
| Cc1cc(O)ccc1C[C@H](N)C(=O)N[C@H](CCCN=C(N)N)C(=O)N[C@@H](Cc1ccccc1)C(=O)N[C@@H](CCCCN)C(N)=O [H-Hmt-D-Arg-Phe-Lys-NH2 II] | – | > 10000 nM and 2320 nM | – |
| NCCCC[C@H](NC(=O)[C@H](Cc1ccccc1)NC(=O)[C@@H](CCCN=C(N)N)NC(=O)[C@@H](N)Cc1ccc(O)cc1)C(N)=O [NSC_122222] | 4230 nM | – | 1.69 nM |
| CN[C@@H](Cc1c(C)cc(O)cc1C)C(=O)N[C@H](CCCN=C(N)N)C(=O)N[C@@H](Cc1ccccc1)C(=O)N[C@@H](CCCCN)C(N)=O [Tmt-D-Arg-Phe-Lys-NH2] | 46.1 nM | 543 nM | 0.192 nM |

From BindingDB's records for doi:10.1016/s0223-5234(00)01171-5 (Clinical Research Institute of Montreal, 2000)
